Experimental findings from patent US11970483B2, “Heterocyclic compound” (Takeda Pharmaceutical Company Limited, priority 2018, dated 2024) are described below.

A word on the EC50: it is the concentration needed to bring the measured effect to its halfway point.

The target in this assay is T1, human M1 receptor (hCHRM1) (Homo sapiens, UniProt P11229).
T1 construct: expressed in transfected cells
T1 sequence (P11229 1-460): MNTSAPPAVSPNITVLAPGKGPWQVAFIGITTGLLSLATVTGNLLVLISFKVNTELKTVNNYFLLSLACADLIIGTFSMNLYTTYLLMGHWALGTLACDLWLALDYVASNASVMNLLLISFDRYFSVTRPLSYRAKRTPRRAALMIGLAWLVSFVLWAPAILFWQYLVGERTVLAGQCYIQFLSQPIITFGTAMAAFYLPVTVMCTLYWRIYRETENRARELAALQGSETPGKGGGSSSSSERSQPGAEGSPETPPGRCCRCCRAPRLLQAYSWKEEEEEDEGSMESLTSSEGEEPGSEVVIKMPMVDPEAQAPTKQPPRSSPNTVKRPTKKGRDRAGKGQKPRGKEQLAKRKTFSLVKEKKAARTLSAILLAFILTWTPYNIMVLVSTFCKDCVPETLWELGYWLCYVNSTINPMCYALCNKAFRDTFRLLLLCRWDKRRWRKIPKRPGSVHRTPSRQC
Nature of the assay: Measurement of M1 receptor positive allosteric modulator (M1PAM) activity (IP1 HTRF, in presence of EC20 acetylcholine). As to conditions: CHO-K1 cells stably expressing hCHRM1; acetylcholine at EC20 concentration; IP1 readout. The class given is cell-based. The procedure:
Measurement of M1 Receptor Positive Allosteric Modulator (M1PAM) Activity
The activity of a test compound in the presence of acetylcholine at an EC20 concentration affording about 20% action of the maximum activity was measured as PAM activity.
The method therefor is as follows. To a 384-well white plate (Greiner) was added 4 μL of the test compound diluted with IP1 Stimulation buffer (CisBio) containing 0.1% fatty acid-free BSA containing 80 nM acetylcholine. Freeze stock of CHO-K1 cells stably expressing human M1 receptor (hCHRM1) was prepared with IP1 Stimulation buffer (CisBio) containing 0.1% fatty acid-free BSA, 4 μL thereof was added (10,000 cells/well) and the mixture was cultured in a 5% CO2 incubator at 37° C. for 1 hr. 4 μL of a solution (CisBio) containing IP1-d2 and Anti-IP1-cryptate Tb conjugate was added, the mixture was incubated at room temperature for 1 hr, and the time-resolved fluorescence signal was measured on an Envision plate reader (PerkinElmer). The activity (%) of the test compound was calculated by defining the value when acetylcholine was added at the final concentration of 20 μM as 100% and the value when DMSO was added instead of the test compound under acetylcholine-free conditions as 0%, and the EC50 value was calculated as a value of 50% of the concentration dependence curve of the test compound.
For orientation: TR-FRET usually uses a lanthanide donor and a delayed reading to cut background.
`Cc1c(Cc2ccc(C(=O)NC3CC3)c(F)c2)cc(C(=O)N[C@H]2CCOC[C@@H]2O)c2c1CCO2` [Example 31, 1,5-anhydro-3-[(5-{[4-(cyclopropylcarbamoyl)-3-fluorophenyl]methyl}-4-methyl-2,3-dihydro-1-benzofuran-7-carbonyl)amino]-2,3-dideoxy-L-threo-pentitol]: the EC50 turned out to be 37 nM. The same measure for `Cc1c(Cc2ccc(C(=O)NC[C@@H]3CCCO3)c(F)c2)cc(C(=O)N[C@H]2CCOC[C@@H]2O)c2c1CCO2` [Example 30, 1,5-anhydro-2,3-dideoxy-3-[(5-{[3-fluoro-4-({[(2S)-oxolan-2-yl]methyl}carbamoyl)phenyl]methyl}-4-methyl-2,3-dihydro-1-benzofuran-7-carbonyl)amino]-L-threo-pentitol]: 56 nM.

Turning to `Cc1nn(C)cc1-c1ccc(Cc2cc(C(=O)N[C@H]3CCOC[C@@H]3O)c3c(c2C)CCO3)cn1` [Example 3, 1,5-anhydro-2,3-dideoxy-3-[(5-{[6-(1,3-dimethyl-1H-pyrazol-4-yl)pyridin-3-yl]methyl}-4-methyl-2,3-dihydro-1-benzofuran-7-carbonyl)amino]-L-threo-pentitol], the EC50 turned out to be 46 nM. The same measure for `Cc1c(Cc2ccc(C(N)=O)cc2)cc(C(=O)N[C@H]2CCOC[C@@H]2O)c2c1CCO2` [Example 5, 1,5-anhydro-3-({5-[(4-carbamoylphenyl)methyl]-4-methyl-2,3-dihydro-1-benzofuran-7-carbonyl}amino)-2,3-dideoxy-L-threo-pentitol]: 12 nM; for `Cc1c(Cc2ccc(C(=O)NCCF)c(F)c2)cc(C(=O)N[C@H]2CCOC[C@@H]2O)c2c1CCO2` [Example 35, 1,5-anhydro-2,3-dideoxy-3-{[5-({3-fluoro-4-[(2-fluoroethyl)carbamoyl]-phenyl}methyl)-4-methyl-2,3-dihydro-1-benzofuran-7-carbonyl]amino}-L-threo-pentitol]: 16 nM.

In the case of `Cc1c(Cc2ccc(-c3cnn(C)c3)nc2)cc(C(=O)N[C@H]2CCOC[C@@H]2O)c2c1CCO2` [Example 2, 1,5-anhydro-2,3-dideoxy-3-[{4-methyl-5-{[6-(1-methyl-1H-pyrazol-4-yl)pyridin-3-yl]methyl}-2,3-dihydro-1-benzofuran-7-carbonyl)amino]-L-threo-pentitol], the EC50 amounted to 33 nM. The same measure for `CNC(=O)c1ccc(Cc2cc(C(=O)N[C@H]3CCOC[C@@H]3O)c3c(c2C)CCO3)cn1` [Example 36, 1,5-anhydro-2,3-dideoxy-3-[(4-methyl-5-{[6-(methylcarbamoyl)pyridin-3-yl]methyl}-2,3-dihydro-1-benzofuran-7-carbonyl)amino]-L-threo-pentitol]: 130 nM; for `CNC(=O)c1ccc(Cc2cc(C(=O)N[C@H]3CCOC[C@@H]3O)c3c(c2C)CCO3)cc1F` [Example 21, 1,5-anhydro-2,3-dideoxy-3-[(5-{[3-fluoro-4-(methylcarbamoyl)phenyl]methyl)-4-methyl-2,3-dihydro-1-benzofuran-7-carbonyl)amino]-L-threo-pentitol]: 24 nM.
